Reference: PMC12401824, “Studies on the impact of modifications at the Gln-Trp site in RM2-based GRPR ligands” (EJNMMI Research, 2025)
Where two headings read alike, the source gives them in different places. Starred links: 1 amine or outer side, 2 acyl side, 3 side chain; linkers in the order of their positions; H or OH if unused. Non-standard residues stand in square brackets, D forms with d. Residues, ends and D or L forms follow the SMILES beside them. *: point of attachment. DOTA = O=C(O)CN1CCN(CC(=O)O)CCN(CC(=O)*)CCN(CC(=O)O)CC1; Sta = CC(C)C[C@H](N)[C@@H](O)CC(=O)O; Bta = N[C@@H](Cc1csc2ccccc12)C(=O)O; X1 = O=C(CN1CCC(N[*:1])CC1)[*:2]; hSer = N[C@@H](CCO)C(=O)O

Key:
[1] = Biodistribution in PC-3 tumor-bearing CB17-SCID mice; assay type: in vivo; conditions: mouse, 100 pmol, ^68Ga-labeled, 1 h p.i., n = 4; for tissue to tissue ratio at 1 h: CB17-SCID, iv, total radioactivity; for tissue uptake at 1 h: intravenous
Method: (§1) To establish tumor xenografts, PC-3 cells (5.0 × 10^6 cells per 200 µL) were suspended in a 1/1 mixture (v/v) of Dulbecco’s modified eagle's medium/Ham’s F-12 with Glutamax-I (v/v = 1/1) and Cultrex® Basement Membrane Matrix Type 3 (Trevigen Inc., Gaithersburg, MD, USA) and inoculated subcutaneously onto the right shoulder of CB17-SCID mice (Charles River Laboratories International Inc., Sulzfeld, Germany). Mice (n = 4) were used for experiments when tumor volume has reached 125–500 mm^3 (2–3 weeks after inoculation).
(§2) Biodistribution. […] (n = 4), respectively. Selected organs were removed, weighted and measured in a γ-counter.

[2] = test system: PC-3 tumor xenograft; assay: as above; assay type: in vivo; conditions: ^68Ga-labeled; 1 h p.i.; n = 4
Method: as §1, §2

[3] = tumor and blood, read-out: Tumor-to-Blood ratio
[4] = tumor and bone, read-out: Tumor-to-Bone ratio
[5] = tumor and heart, read-out: Tumor-to-Heart ratio
[6] = tumor and intestine, read-out: Tumor-to-Intestine ratio
[7] = tumor and kidney, read-out: Tumor-to-Kidney ratio
[8] = tumor and liver, read-out: Tumor-to-Liver ratio
[9] = tumor and lung, read-out: Tumor-to-Lung ratio
[10] = tumor and muscle, read-out: Tumor-to-Muscle ratio
[11] = tumor and pancreas, read-out: Tumor-to-Pancreas ratio
[12] = tumor and spleen, read-out: Tumor-to-Spleen ratio
[13] = tumor and stomach, read-out: Tumor-to-Stomach ratio
[14] = adrenal, read-out: Uptake in Adrenal
[15] = blood, read-out: Uptake in Blood
[16] = heart, read-out: Uptake in Heart
[17] = intestine, read-out: Uptake in Intestine
[18] = kidney, read-out: Uptake in Kidney
[19] = liver, read-out: Uptake in Liver
[20] = muscle, read-out: Uptake in Muscle
[21] = pancreas, read-out: Uptake in Pancreas
[22] = spleen, read-out: Uptake in Spleen
[23] = stomach, read-out: Uptake in Stomach
[24] = tumor, read-out: Uptake in Tumor

tissue to tissue ratio at 1 h [1, 3]	tissue to tissue ratio at 1 h [1, 4]	tissue to tissue ratio at 1 h [1, 5]	tissue to tissue ratio at 1 h [1, 6]	tissue to tissue ratio at 1 h [1, 7]	tissue to tissue ratio at 1 h [1, 8]	tissue to tissue ratio at 1 h [1, 9]	tissue to tissue ratio at 1 h [1, 10]	tissue to tissue ratio at 1 h [1, 11]	tissue to tissue ratio at 1 h [1, 12]	tissue to tissue ratio at 1 h [1, 13]	tissue uptake at 1 h [1, 14]	tissue uptake at 1 h [1, 15]	tissue uptake at 1 h ([1]; bone, read-out: Uptake in Bone)	tissue uptake at 1 h [1, 16]	tissue uptake at 1 h [1, 17]	tissue uptake at 1 h [1, 18]	tissue uptake at 1 h [1, 19]	tissue uptake at 1 h ([1]; lung, read-out: Uptake in Lung)	tissue uptake at 1 h [1, 20]	Structure (SMILES)	other results
7.6 ± 2.6	29.5 ± 8.2	19.8 ± 5	12.2 ± 4.5	3.3 ± 0.6	10.7 ± 2.3	8.8 ± 3	50.6 ± 19.4	1.9 ± 1.3	18.7 ± 6.9	7.1 ± 0.7	1.95 ± 1.3 %ID/g	1.07 ± 0.27 %ID/g	0.3 ± 0.15 %ID/g	0.4 ± 0.1 %ID/g	0.66 ± 0.14 %ID/g	2.33 ± 0.25 %ID/g	0.73 ± 0.17 %ID/g	0.92 ± 0.22 %ID/g	0.19 ± 0.11 %ID/g	CC(C)C[C@H](NC(=O)C[C@H](O)[C@H](CC(C)C)NC(=O)[C@H](Cc1c[nH]cn1)NC(=O)CNC(=O)[C@@H](NC(=O)[C@H](C)NC(=O)[C@H](Cc1csc2ccccc12)NC(=O)[C@H](CCC(N)=O)NC(=O)[C@@H](Cc1ccccc1)NC(=O)CN1CCC(NC(=O)CN2CCN(CC(=O)O)CCN(CC(=O)O)CCN(CC(=O)O)CC2)CC1)C(C)C)C(N)=O [[^68Ga]Ga-[Bta^8]RM2, metal not drawn] ({DOTA}-[X1][dF]Q[Bta]AVGH[Sta]L-NH2)	tissue uptake at 1 h [1, 21]: < 8 %ID/g; tissue uptake at 1 h [1, 22]: 0.46 ± 0.16 %ID/g; tissue uptake at 1 h [1, 23]: 1.07 ± 0.14 %ID/g; tissue uptake at 1 h [1, 24]: ~7.5 %ID/g; Tumor-to-Adrenal ratio [2]: 13.3 ± 17.2
1.9 ± 0.1	7.8 ± 0.7	6 ± 0.9	5 ± 0.3	2.2 ± 0.2	5.1 ± 0.5	3.3 ± 0.6	22.8 ± 3.4	0.9 ± 0.1	5 ± 0.7	4.1 ± 0.3	2.47 ± 0.3 %ID/g	3.92 ± 0.07 %ID/g	0.98 ± 0.12 %ID/g	1.29 ± 0.14 %ID/g	1.52 ± 0.1 %ID/g	3.51 ± 0.2 %ID/g	1.49 ± 0.06 %ID/g	2.33 ± 0.28 %ID/g	0.34 ± 0.04 %ID/g	CC(C)C[C@H](NC(=O)C[C@H](O)[C@H](CC(C)C)NC(=O)[C@H](Cc1c[nH]cn1)NC(=O)CNC(=O)[C@@H](NC(=O)[C@H](C)NC(=O)[C@H](Cc1c[nH]c2ccccc12)NC(=O)[C@H](CCO)NC(=O)[C@@H](Cc1ccccc1)NC(=O)CN1CCC(NC(=O)CN2CCN(CC(=O)O)CCN(CC(=O)O)CCN(CC(=O)O)CC2)CC1)C(C)C)C(N)=O [[^68Ga]Ga-[Hse^7]RM2, metal not drawn] ({DOTA}-[X1][dF][hSer]WAVGH[Sta]L-NH2)	tissue uptake at 1 h [1, 21]: < 8 %ID/g; tissue uptake at 1 h [1, 22]: 1.55 ± 0.15 %ID/g; tissue uptake at 1 h [1, 23]: 1.88 ± 0.06 %ID/g; tissue uptake at 1 h [1, 24]: ~7.5 %ID/g; Tumor-to-Adrenal ratio [2]: 1.4 ± 1.1
